The values below come from patent US20040024048A1, “Medicaments for treating dementia” (priority 2000, published 2004).

Read-outs that look alike come from different tables or passages of the source.

Experiment [1] has as its system patients with clinical manifestations of dementing deficits. The experiment in a line: Alzheimer's disease assessment scale (ADAS / ADAS-Cog) in dementia patients. Format: in vivo, human. The source says: A further test for establishing the neuropsychological status of a dementia patient is the “Alzheimer's Disease Assessment Scale-Cognitive Subscale (ADAS-Cog)” (Rosen et al., 1984). The Alzheimer Disease Assessment Scale was invented by W. G. Rosen, R. C. Mohs, 1988, Rosen and K. L. Davis, 1984, and the German version was produced by R. Ihl and G. Weyer, Beltz Test 1993. The ADAS was not originally intended to be a diagnostic instrument, but separates dementing people from healthy control subjects of the same age very well. The following criteria can be distinguished in the ADAS: cognitive area, noncogn. area, memory, orientation/praxis, motor function, depression, psychotic symptoms, concentration/cooperation, speech. In the version used here, speech is included in the cognitive area, and thus a max. minus score of 70 is possible. It was possible to show for people with Alzheimer-type dementia that the complete scale increases by 5 to 7 points on average over the course of 12 months, and by 14 points on average over the course of 24 months. The items in the cognitive part are most sensitive in this regard.
(§1) Patients with clinical manifestations of dementing deficits and suspected brain damage based on Alzheimer's dementia or vascular dementia or a similar suspected diagnosis were treated with medicines to improve the symptomatic cognitive deficits (nootropics). Since all the active ingredients currently available in the dementia sector provide only marginal improvements, it was justified, despite the disappointing first study, to administer α-lipoic acid in high dose to patients on the basis of this basic therapy. The effect of the therapy was assessed using standardized clinical dementia assessment scales which are usual now and which are distinguished by high reliability. This comprises the mini-mental state examination (MMSE) or the Alzheimer's disease assessment scale (ADAS). The advantage of these clinical instruments is that the severity of the dementia can be established reliably, irrespective of the organic cerebral basis, which is usually not unambiguous, of the clinical picture of dementia.

The test system is the same in experiment [2]. The experiment in a line: mini-mental state examination (MMSE) in dementia patients. The format is in vivo, human.
Description: The mini-mental state examination test was published by Marshall Folstein in 1975 and was originally intended as a test to differentiate cognitive functions (Folstein et al., 1975). Because the test is short, it is now used as screening test in studies for establishing inclusion/exclusion criteria. The test covers orientation, attention, short- and medium-term memory, word-finding, reading, writing, and in addition a command to perform an action must be obeyed. The tasks in the test are designed so that they can normally be solved without difficulty by people without cognitive impairment. The maximum score achievable is 30, and a score of less than 24 indicates a dementing disorder. The following levels are generally differentiated (Zec et al., 1992).
as §1

In the next experiment the test system is aging animals. The settings on record: cited from earlier work.
Experiment [3] relates to patients with HIV dementia. As to conditions: cited from earlier work.
The subject of the next experiment is aged rats. As to conditions: high dose, cited from earlier work.
The test system of experiment [4] is patients with sclerotic dementia and involutional depressions. As to conditions: 25-50 mg, patent calls findings unconfirmed and misleading; cited from earlier work.
The test system of experiment [5] is patients with clinical manifestations of dementing deficits. Kind of experiment: Global Deterioration Scale (GDS) in dementia patients. The format is in vivo, human. The settings on record: GDS 4/5 at start. The source says:
Standardized methods are developed for routine dementia screening, e.g. the mini-mental state examination (MMSE) or the Alzheimer's Disease Assessment Scale (ADAS). Further methods would be: GDS: Global Deterioriation Scale (Reisberg et al., 1982), FAST: Functional Assessment Staging (Reisberg, 1988).

Where [6] appears, read: Patient 2, Alzheimer's dementia, Aricept 5/10 mg/day for 12 months, before lipoic acid.
Setting [7] is: Patient 3, Alzheimer's dementia, Aricept 5 mg/day 13 months plus 600 mg vitamin E.
The mark [8] stands for this setting: Patient 4, Alzheimer's dementia, Aricept 5/10 mg/day 19 months, 300 mg aspirin and 600 mg vitamin E 20 months.
Setting [9] is: patients with HIV dementia, administration of α-lipoic acid.
The mark [10] stands for this setting: Patient 1, Alzheimer's dementia, 4 weeks additional 600 mg a-lipoic acid on Aricept.
[11] abbreviates: Patient 2, additional 600 mg lipoic acid over 7 months on Aricept, Remotiv, vitamin E.
Where [12] appears, read: Patient 3, additional 600 mg lipoic acid on Aricept and vitamin E.
[13] abbreviates: Patient 4, 600 mg lipoic acid for 8 months on Aricept, aspirin, vitamin E.
The mark [14] stands for this setting: Patient 6, 600 mg lipoic acid on basic therapy.
Where [15] appears, read: Patient 8, 600 mg lipoic acid 4 weeks, Aricept 8 weeks.
[16] abbreviates: Patient 11, dementia plus parkinsonism, 600 mg lipoic acid 4 months on Aricept and Madopar T.

Turning to `COc1cc2c(cc1OC)C(=O)C(CC1CCN(Cc3ccccc3)CC1)C2` (centres unmarked) [Aricept, donepezil], in experiment [1] (setting [6]), the “ADAS score reached (deterioration)” value came to 53. The ADAS score increase in experiment [1] (setting [7]) is 14. Moreover, the “decrease of cognitive ability in the ADAS score” value in experiment [1] (setting [8]) is 9. The “deterioration of cognitive status in the MMSE” value in experiment [2] (Patient 1, Alzheimer's dementia, Aricept 5/10 mg/day for 4 months, before lipoic acid) worked out at 1 point. The “deterioration in the MMSE score” value in experiment [2] (setting [6]) came out at 7; in experiment [2] (Patient 5, Alzheimer's dementia, Aricept 5/10 mg/day 24 months with Accuzide 20, Akatinol, 600 mg vitamin E), 6; in experiment [2] (Patient 6, Alzheimer's dementia, Aricept 5/10 mg/day 13 months with aspirin 100, Rökan, 600 mg vitamin E), 5; in experiment [2] (Patient 7, Alzheimer's dementia, Aricept 5 mg/day 6 months plus 600 mg vitamin E), 6. Also, the MMSE score deterioration in experiment [2] (setting [7]) was found to be 2. For the same compound, the “decrease in the MMSE score” value in experiment [2] (setting [8]) was found to be 5. The MMSE score reached in experiment [2] (Patient 9, Lewy body dementia, Aricept 5 mg 12 months, Madopar T and Madopar Depot, before lipoic acid) came to 17.

In turn, `CCN(C)C(=O)Oc1cccc([C@H](C)N(C)C)c1` [Exelon] returned an MMSE score decrease in experiment [2] (Patient 10, frontal cerebral atrophy, Exelon 6 mg/day for 9 months) of 5.

In the case of `O=C(O)CCCCC1CCSS1` (stereo not drawn) [R(+)-α-lipoic acid], the “influence on motor functions” value with aging animals is “beneficial influence”.

On to `C#CCN(C)[C@H](C)Cc1ccccc1` [deprenyl], for which the “effects on cognitive performance” value in experiment [3] (demented patients, active control drug in the HIV dementia study) is “confirmed its known beneficial effects”.

Turning to `O=C(O)CCCCC1CCSS1` (stereo not drawn) [α-lipoic acid, 1,2-dithiolane-3-pentanoic acid], the memory performance entry in the experiment on aged rats (aged rats) is “improvement in memory performance”; in the experiment on aged rats (young animals), “not in young animals”. Moreover, the manifestations of dementia result in experiment [4] is “improvement of manifestations of dementia”. Moreover, the “GDS reached (improved)” value in experiment [5] (Patient 3, additional 600 mg lipoic acid) amounted to 4; in experiment [5] (Patient 6, 600 mg lipoic acid), 4. Besides, the “GDS level reached (improved by one level)” value in experiment [5] (Patient 5, 600 mg lipoic acid) is listed as 4. Besides, the “effect on the cognitive function” value in experiment [3] (patients with HIV dementia, 600 mg α-lipoic acid monotherapy) is “no effect whatsoever”. In addition, the learning entry in experiment [3] (setting [9]) is “deterioration in learning”. For the same compound, the “verbal learning ability and memory” value in experiment [3] (setting [9]) is recorded as “declined significantly”. The ADAS score decrease worked out at 6 in experiment [1] (setting [10]) and 5 in experiment [1] (Patient 12, frontal cerebral atrophy, 600 mg lipoic acid 4 weeks, Aricept 8 weeks). For the same compound, the ADAS score reached in experiment [1] (Patient 1, Alzheimer's dementia, after 4 weeks additional 600 mg a-lipoic acid on Aricept) was found to be 18; in experiment [1] (setting [15]) it was 35 error points; in experiment [1] (Patient 12, frontal cerebral atrophy, 600 mg lipoic acid 4 weeks, Aricept 8 weeks, from 41 points), 36 points. Besides, the “improvement in the ADAS score” value in experiment [1] (setting [11]) is 11 points. The same compound yielded an ADAS score recovery in experiment [1] (setting [12]) of 2. Also, in experiment [1] (setting [13]), the “ADAS score went back” value was determined as 3 points. This compound also displayed an ADAS score loss in experiment [1] (setting [14]) of 8. In addition, in experiment [1] (Patient 7, 600 mg lipoic acid on Aricept and vitamin E), the ADAS course entry is on record as “remains constant”. The ADAS score decline in experiment [1] (setting [15]) came to 3. The ADAS score course entry in experiment [1] (setting [16]) is listed as “remained at the same level”. Also, the MMSE score improvement in experiment [2] (setting [10]) is given as 2; in experiment [2] (setting [12]), 1; in experiment [2] (Patient 5, first 3 months of 600 mg lipoic acid on basic therapy), 1. Besides, the “improvement in the MMSE score” value in experiment [2] (setting [11]) is given as 1 point; in experiment [2] (setting [13]) it was 2; in experiment [2] (Patient 7, after two months of 600 mg lipoic acid on Aricept and vitamin E), 1; in experiment [2] (Patient 9, Lewy body dementia, 600 mg lipoic acid on Aricept and Madopar) it was 3; in experiment [2] (Patient 10, frontal cerebral atrophy, additional 600 mg lipoic acid on Exelon), 1. Also, the “course of the dementia (MMSE) since lipoic acid” value in experiment [2] (setting [14]) is “no further deterioration”. This compound also registered an MMSE score now in experiment [2] (Patient 8, Alzheimer's dementia, 600 mg lipoic acid 4 weeks, Aricept 8 weeks, score 18 at start of lipoic acid) of 20. Further, in experiment [2] (setting [16]), the MMSE score course result is listed as “remained at the same level”. The same compound displayed an MMSE score reached in experiment [2] (Patient 12, frontal cerebral atrophy, 600 mg lipoic acid 4 weeks, Aricept 8 weeks, other drugs, from 16) of 18.
